The test system of assay [1] is drug-inducible promoters, tp1 and tp2. Description: Real-time PCR of RNA levels in recombinants carrying tp1 or tp2 expression vectors, with and without probenazole treatment. The assay is classed as in vivo, sugarcane variety Q165. The settings on record: Recombinants 1 to 8; Oryzemate granules (8% probenazole), 20 g/4 liters of soil; leaves sampled 0, 7 and 14 days after treatment; FIG. 7. On the procedure: In Example 2, transcription promoting activity of the two types of drug-inducible promoters, tp1 and tp2, isolated in Example 1 was examined in the presence and in the absence of probenazole.
With the use of the tp1-carrying expression vector and the tp2-carrying expression vector constructed in the manner described above, Recombinants 1 to 8 were prepared. Recombinants 1 to 7 were prepared with the use of the tp1-carrying expression vector, and Recombinant 8 was prepared with the use of the tp2-carrying expression vector.
Recombinants 1 to 8 prepared in the manner described above were treated with Oryzemate granules (8% probenazole, Meiji Seika Pharma Co., Ltd., 20 g/4 liters of soil), and leaves were sampled therefrom 0 days after drug treatment (i.e., immediately before the treatment), 7 days after drug treatment, and 14 days after drug treatment. The RNA levels of the recombinants were quantified using the AB17500 real-time PCR apparatus (Applied BioSystems) in accordance with the SYBR Green method. A comparative example shown in FIG. 7 concerns a recombinant prepared with the use of ecc0002-Hd3a-pIG121-Hm. The control example shown in FIG. 7 concerns the Q165 wild-type sugarcane variety.
In general terms: Real-time PCR tracks product formation cycle by cycle.

Another assay has as its system sugarcane variety Q165. Description: RNAseq expression analysis of leaves before and after probenazole treatment. It is filed as in vivo. The settings on record: 8% Oryzemate granules, 20 g/4 liters of soil, about 60 days after planting, selected gene. The source says: In Example 1, at the outset, a sugarcane variety Q165 was subjected to drug treatment with probenazole (8% Oryzemate granules, Meiji Seika Pharma Co., Ltd., 20 g/4 liters of soil) approximately 60 days after it had been planted. The leaves that had expanded from the top were sampled before and after the treatment, and total RNA was extracted using the RNeasy Plant Mini Kit (QIAGEN).
Subsequently, the obtained total RNA was subjected to RNAseq expression analysis (Illumina HiSeq Sequencing, both-ends analysis), so as to obtain read data set. With the use of the assembler (Velvet version 1.2.08), the read data were reassembled into contig sequence information. The contig sequence information resulting from such reassembly was compared with each RNA sequence, and mapping data were obtained using a mapping program (Bowtie version 1.0.0). The resulting data were designated as the original data for RNAseq analysis.
On the basis of the EST sequence, two types of gene expression regulatory DNAs located in the 5′ upstream region of the selected gene were obtained by the Straight Walk method developed by BEX Co., Ltd. Such gene expression regulatory DNAs are drug-inducible promoters whose transcription activity is activated in the presence of a drug, such as probenazole. […]

As for `C=CCOC1=NS(=O)(=O)c2ccccc21` [probenazole], the “degree of gene expression induction” value in assay [1] is given as not below 3 times. In addition, in the assay on sugarcane variety Q165, the “increase in expression levels of EST sequence, drug treatment group versus non-treatment group” value is on record as not below 100 fold.

The values are drawn from patent publication US10968457B2, “Drug-inducible promoter and method of inducting gene expression using the same” (TOYOTA JIDOSHA KABUSHIKI KAISHA, priority 2015, dated 2021).
